The numbers were not newly measured in patent publication US20250011247A1, “GYPSUM HARDENED PRODUCT” (KAO CORPORATION, priority 2022, published 2025), which cites them from elsewhere.

Molecules are shown by their SMILES.

For the series the following is noted: 1-octanol/water; measured value if any, otherwise C log P calculated by C LOG P v 4.01.

The term log P denotes a log measure of how a compound divides between an organic and an aqueous phase. On to `CCCCC=O` [pentanal], for which the “log P” value is recorded as 1.31.
